Measurements taken from publication PMC7692735, “Bromo-Cyclobutenaminones as New Covalent UDP-N-Acetylglucosamine Enolpyruvyl Transferase (MurA) Inhibitors” (Pharmaceuticals, 2020).
≈ marks a conversion by molar mass, not a printed value. Entries after “also recorded” stand apart in the source; their conditions may differ. Like-named read-outs stand apart in the source and are kept apart here.

Tests used:
[1] = target: T1, MurA (E. coli) (Escherichia coli, UniProt P0A749); assay: MurA assay, colorimetric malachite green method; type: biochemical; details: for MurA inhibition in screening: 500 μM screening concentration
T1 construct: made in house; host or cells: E. coli
Description: MurAEC protein was recombinant, expressed in E. coli. The inhibition of MurA was monitored with the colorimetric malachite green method in which orthophosphate generated during the reaction is measured. MurA enzyme (E. coli) was pre-incubated with the substrate UNAG and compound for 30 min at 37 °C. The reaction was started by the addition of the second substrate PEP, resulting in a mixture with a final volume of 50 μL. The mixtures contained: 50 mM Hepes, pH 7.8, 0.005% Triton X-114, 200 μM UNAG, 100 μM PEP, purified MurA (diluted in 50 mM Hepes, pH 7.8) and 500 μM of each tested compound dissolved in DMSO. All compounds were soluble in the assay mixtures containing 5% DMSO (v/v). After incubation for 15 min at 37 °C, the enzyme reaction was terminated by adding Biomol® reagent (100μL) and the absorbance was measured at 650 nm after 5 min. All of the experiments were run in duplicate. Remaining activities (RAs) were calculated with respect to similar assays without the tested compounds and with 5% DMSO. The IC50 values, the concentration of the compound at which the remaining activity was 50%, were determined by measuring the remaining activities at seven different compound concentrations. The data are expressed as means of duplicate determinations, and the standard deviations were within 10% of the given values. A time-dependent inhibition assay was also performed. The IC50 values were determined at 0, 15 and 30 min of pre-incubation.

[2] = target: T1, MurA (E. coli); details: known MurA inhibitors, Figure 1; cited from earlier work
[3] = GSH reactivity assay (HPLC-MS); type: physicochemical; details: 250 μM fragment, 5 mM glutathione, PBS pH 7.4, 5% MeCN
Description: (§1) The assay was adapted from our former publication.
(§2) For the glutathione assay, 500 μM solution of the fragment (PBS buffer pH 7.4, 10% MeCN, 250 μL) with 200 μM solution of indoprofen (Merck KGaA, Darmstadt, Germany) as internal standard was added to 10 mM glutathione (Merck KGaA, Darmstadt, Germany) solution (dissolved in PBS buffer, 250 μL) in a 1:1 ratio. The final concentration was 250 μM fragment, 100 μM indoprofen, 5 mM glutathione and 5% MeCN (500 μL). The final mixture was analyzed by HPLC-MS (Shimadzu LCMS-2020) after 0, 1, 2, 4, 20, 25, 48, 72 h time intervals. […] The AUC (area under the curve) values were determined via integration of HPLC spectra then corrected using the internal standard. […] The data are expressed as means of duplicate determinations, and the standard deviations were within 10% of the given values. […]
(§3) The reaction half-life for pseudo-first-order reactions is t1/2 = ln2/k, where k is the reaction rate. […] In our case, the corrected kdeg and keff (regarding blank and GSH-containing samples, respectively) can be calculated by linear regression of the data points of the kinetic measurements. The corrected kGSH is calculated by keff − kdeg, and finally, the half-life time is determined using the equation t1/2(GSH) = ln2/kGSH.

[4] = Aqueous stability assay in PBS buffer; type: physicochemical; details: PBS buffer pH 7.4, room temperature; read-out: t1/2 aqueous degradation (converted)
Description: as §1, §2, §3

[5] = system: MurA Cys115; assay: MS/MS of tryptic digested MurA, covalent labelling; type: binding, E. coli; details: tryptic peptide amino acids 104–120
Description: The tryptic digestion method was adapted from our former publication.
Briefly, 50 μL of MurA (42 μM) and 10 μL 0.2% (w/v) RapiGest SF (Waters Corp., Milford, MA, USA) solution buffered with 50 mM ammonium bicarbonate (NH4HCO3) were mixed (pH = 7.8). 4.5 μL of 45 mM DTT (~200 nmol) in 100 mM NH4HCO3 was added and the mixture kept at 37.5 °C for 30 min. After cooling the sample to room temperature, 7.5 μL of 100 mM iodoacetamide (750 nmol) in 100 mM NH4HCO3 was added and the mixture placed in the dark at room temperature for 30 min. The reduced and alkylated protein was then digested by 10 μL (1 mg mL^−1) trypsin (the enzyme-to-protein ratio was 1:10) (Sigma, St Louis, MO, USA). The sample was incubated at 37 °C overnight. To degrade the surfactant, 7 μL of HCOOH (500 mM) solution was added to the digested […] sample to obtain the final 40 mM (pH ≈ 2) solution which was incubated at 37 °C for 45 min. For LC-MS analysis, the acid-treated sample was centrifuged for 5 min at 13,000 rpm.
A QTRAP 6500 triple quadruple—linear ion trap mass spectrometer, equipped with a Turbo V source in electrospray mode (AB Sciex Pte. Ltd., Framingham, MA, USA) and an Agilent 1100 Binary Pump HPLC system (Agilent Technologies, Waldbronn, Germany) equipped with an autosampler was used for LC-MS/MS analysis. […]

[6] = system: E. coli (ATCC 25922); assay: Antimicrobial testing (MIC), broth microdilution; type: cell-based; details: Escherichia coli, ATCC25922, positive control
Description: (§4) Antimicrobial testing was carried out by the broth microdilution method in 96-well plate format following the CLSI guidelines and European Committee for Antimicrobial Susceptibility Testing recommendations. Bacterial suspension of specific bacterial strain, equivalent to 0.5 McFarland turbidity standard, was diluted with cation-adjusted Mueller Hinton broth to obtain a final inoculum of 10^5 CFU/mL. Compounds dissolved in DMSO and inoculum were mixed together and incubated for 20–24 h at 37 °C. After incubation the minimal inhibitory concentration (MIC) values were determined by visual inspection as the lowest dilution of compounds showing no turbidity. The MICs were determined against S. aureus (ATCC 29213) and E. coli (ATCC 25922) bacterial strains. Tetracycline was used as a positive control on every assay plate, showing a MIC of 0.5 µg/mL and 1 µg/mL for S. aureus and E. coli, respectively.

[7] = system: S. aureus (ATCC 29213); assay: Antimicrobial testing (MIC), broth microdilution; type: cell-based; details: Staphylococcus aureus, ATCC29213, positive control
Description: as §4

[8] = system: MurA (E. cloacae); design: method as in PMID 24755374, PMID 25521652, PMID 11600375, PMID 30461051; details: known MurA inhibitors, Figure 1; cited from earlier work
[9] = fragment 500 μM, 30 min preincubation at 37 °C
[10] = fragment 500 μM, 30 min preincubation at 37 °C, read-out: RA (remaining activity) at 500 µM
[11] = 30 min preincubation, read-out: IC50 (converted)

T1 sequence (P0A749 whole entry): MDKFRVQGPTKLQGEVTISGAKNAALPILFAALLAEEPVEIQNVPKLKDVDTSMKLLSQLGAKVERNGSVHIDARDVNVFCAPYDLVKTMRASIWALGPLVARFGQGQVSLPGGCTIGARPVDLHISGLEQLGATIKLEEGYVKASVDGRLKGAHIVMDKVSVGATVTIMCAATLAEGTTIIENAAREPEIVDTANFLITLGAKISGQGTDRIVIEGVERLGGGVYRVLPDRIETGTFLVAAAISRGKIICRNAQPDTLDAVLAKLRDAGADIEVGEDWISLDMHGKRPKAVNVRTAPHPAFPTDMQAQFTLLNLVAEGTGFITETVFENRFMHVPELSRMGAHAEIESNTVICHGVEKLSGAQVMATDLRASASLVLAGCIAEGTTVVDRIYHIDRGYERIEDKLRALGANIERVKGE

Compound: 2-Bromo-4,4-dimethyl-3-(methylamino)cyclobut-2-en-1-one [15b]
- RA (remaining activity) at 500 µM [1, 9]: 91 ± 5%

Compound: C=C1C(=O)OCC1O (racemic) [(±)-tulipaline B]
- IC50 [2]: 2.2 µM

Compound: CNC1=CC(=O)C1(C)C [14a, 3-(Methylamino)-4,4-dimethylcyclobut-2-en-1-one]
- remaining activity at 500 µM [1, 10]: 93 ± 4%

Compound: CN(C)C1=CC(=O)C1(C)C [14b, 3-(Dimethylamino)-4,4-dimethylcyclobut-2-en-1-one]
- remaining activity at 500 µM [1, 10]: 99 ± 1%

Compound: CCN(CC)C1=CC(=O)C1(C)C [14c, 3-(Diethylamino)-4,4-dimethylcyclobut-2-en-1-one]
- remaining activity at 500 µM [1, 10]: 96 ± 2%

Compound: COc1ccc(CN(C)C2=CC(=O)C2(C)C)cc1 [14d, 3-((4-Methoxybenzyl)(methyl)amino)-4,4-dimethylcyclobut-2-en-1-one]
- remaining activity at 500 µM [1, 10]: 99 ± 3%

Compound: CN(CC(F)(F)F)C1=CC(=O)C1(C)C [14e, 4,4-Dimethyl-3-(methyl(2,2,2-trifluoroethyl)amino)cyclobut-2-en-1-one]
- remaining activity at 500 µM [1, 10]: 98 ± 7%

Compound: CNC1=C(Br)C(=O)C1(C)C [15a, 2-Bromo-4,4-dimethyl-3-(methylamino)cyclobut-2-en-1-one]
- remaining activity at 500 µM [1, 10]: 100 ± 7%

Compound: CCN(CC)C1=C(Br)C(=O)C1(C)C [15c, 2-Bromo-3-(diethylamino)-4,4-dimethylcyclobut-2-en-1-one]
- remaining activity at 500 µM [1, 10]: 88 ± 6%

Compound: COc1ccc(CN(C)C2=C(Br)C(=O)C2(C)C)cc1 [15d, 2-Bromo-3-((4-methoxybenzyl)(methyl)amino)-4,4-dimethylcyclobut-2-en-1-one]
- IC50 [1, 11]: 363 µM
- RA (remaining activity) at 500 µM [1, 9]: 13 ± 1%
- remaining activity at 500 µM ([1]; read-out: RA (remaining activity) at 500 µM, fragment 500 μM, 30 min preincubation at 37 °C): < 15%

Compound: CN(CC(F)(F)F)C1=C(Br)C(=O)C1(C)C [15e, 2-Bromo-4,4-dimethyl-3-(methyl(2,2,2-trifluoroethyl)amino)cyclobut-2-en-1-one]
- MurA inhibition in screening [1]: no effect
- remaining activity at 500 µM [1, 10]: 84 ± 4%

Compound: CN(C(=O)c1ccccc1)C1=CC(=O)C1(C)C [16a, N-(4,4-dimethyl-3-oxocyclobut-1-en-1-yl)-N-methylbenzamide]
- remaining activity at 500 µM [1, 10]: 99 ± 8%

Compound: CN(C(=O)c1ccccc1)C1=C(Br)C(=O)C1(C)C [17a, N-(2-bromo-4,4-dimethyl-3-oxocyclobut-1-en-1-yl)-N-methylbenzamide]
- IC50 ([1]; IC50, 30 min preincubation): 138 µM
- remaining activity at 500 µM [1, 10]: 12 ± 3%
- kGSH rate constant of conjugation with GSH [3]: 0.0128 M/min
- half-life at 250 μM [4]: 36.5 h
- Covalent labelling site on MurA by MS/MS [5]: labelled on Cys115; also recorded: labeling on Cys115

Compound: CC(=O)N(C)C1=C(Br)C(=O)C1(C)C [17b, N-(2-bromo-4,4-dimethyl-3-oxocyclobut-1-en-1-yl)-N-methylacetamide]
- IC50 ([1]; 0 min preincubation, read-out: IC50 (converted)): 356 ± 29 µM
- IC50 ([1]; 15 min preincubation, read-out: IC50 (converted)): 149 ± 15 µM
- IC50 [1, 11]: 128 µM
- remaining activity at 500 µM [1, 10]: 8 ± 2%
- Covalent labelling site on MurA by MS/MS [5]: labeling on Cys115

Compound: CN(C)[C@@H]1C(O)=C(C(N)=O)C(=O)[C@@]2(O)C(O)=C3C(=O)c4c(O)cccc4[C@@](C)(O)[C@H]3C[C@@H]12 [Tetracycline]
- MIC [6]: 1 µg/mL (≈ 2.25 µM)
- MIC [7]: 0.5 µg/mL (≈ 1.13 µM)

Compound: O=C1O/C(=C\c2cccc3ccccc23)C(O)=C1c1ccc(C(F)(F)F)cc1 [compound 5]
- IC50 [2]: 39 µM

Compound: C=C(C(=O)O)[C@@H]1[C@@H](CCCCCCCC)OC(=O)[C@@H]1O [compound 8]
- IC50 [2]: 2.8 µM

Compound: C=Cc1cncs1 [compound 9]
- IC50 [2]: 66 µM

Compound: Ic1cncnc1 [compound 10]
- IC50 [2]: 3.8 µM

Compound: CCOC1=CC(=O)C1(C)C [compound 12, 3-Ethoxy-4,4-dimethylcyclobut-2-en-1-one]
- MurA inhibition in screening [1]: to no avail
- remaining activity at 500 µM [1, 10]: 98 ± 2%

Compound: CC1=C(O)C(=O)[C@@H]2O[C@@H]2C1=O [terreic acid]
- IC50 [8]: 14 µM
